Laboratory results as given in patent US20220378907A1, “METHODS FOR TREATING DISEASES” (CHILDREN'S HOSPITAL MEDICAL CENTER, priority 2019, published 2022).

Experiments:
Type in all cases: cell-based, mouse
pro-IL-1β in BMDCs = assay: Co-culture of BMDCs and effector CD4+ T cells, pro-IL-1β by immunoblot or flow cytometry; conditions: WT BMDCs + WT TH0 cells, CD3 Ab, IETD 10 μM, 18 h
Description: 1 million DCs were cultured with 4 million T cells in 12 well plate. DC-T cell interaction was triggered by adding either αCD3ε (αCD3, 200 ng mL^−1) or OVA323-339 as described in the legends. In experiments measuring secreted IL-1β, IL-1R antagonist (50 ng mL^−1) was added 1 hr prior to DC stimulation to block IL-1β consumption. Co-cultures were also pretreated with neutralizing antibodies and inhibitor wherever described. Co-culture experiments were performed in complete RPMI supplemented with 10% FCS. For Western blot analysis of the culture supernatant cells were cultured in 1% FCS containing complete RPMI.
Cells were lysed in 1× RIPA Buffer and protein was quantified using Pierce™ BCA Protein Assay Kit. Cell lysates where boiled in 1× Laemmli buffer at 95° C. for 10 mins. Cell lysates were separated by SDS-PAGE and transferred onto PVDF membranes. Blots were incubated with anti-IL1β [1:1000] (R&D AF-401-SP), anti-caspase8 [1:1000] […] Western blot was develop using SuperSignal™ West Pico PLUS Chemiluminescent Substrate (Thermo Fisher) and ECL signal was recorded on X-Ray Films using a developer (Kodak).
Cells were stained with relevant antibodies for 30 min on ice and washed. […] The stained cells were analyzed with BDLSRII or Novocyte (ACEA biosciences). For cytokine receptor staining, control refers to fluorescence minus one control. Data were analyzed with FlowJo 10 Software.

[1] = system: IL-1β production by BMDCs co-cultured with TH0 cells; assay: Co-culture of BMDCs and effector CD4+ T cells (CD3 Ab), secreted IL-1β by ELISA or immunoblot; conditions: WT BMDCs + WT TH0 cells, IETD 10 μM, 18 h
Description: Cell culture treated plates were coated with αCD3 (5 μg mL^−1) and αCD28 (5 μg mL^−1) for 3-4 h at 37° C. CD4^+CD62L^hi naïve CD4^+ T cells were isolated from splenocytes using a Mojosort naïve CD4 T cell isolation kit according to manufacturer's protocol. Purified naïve T cells were plated in antibody-coated plates with appropriate polarizing conditions for 5 days. T cell were cultured in complete RPMI supplemented with 10% FCS. Cytokine cocktails for in vitro polarization: Thl — IL-12 (10 ng mL^−1, peprotech), IL-2 (50 U mL^−1, peprotech), αIL-4 (10 μg mL^−1, Biolegend); Th17-IL-6 (20 ng mL^−1, peprotech), hTGFβ (5 ng mL^−1, peprotech), αIL-4 (10 μg mL^−1, Biolegend), αIFNγ (10 μg mL^−1, Biolegend), IL-23 (20 ng mL^−1, Biolegend) and IL-1β (20 ng mL^−1, peprotech), Th2− IL-4 (4 ng mL^−1, peprotech), IL-2 (50 U mL^−1, Biolegend), and αIFNγ (10 μg mL^−1, Biolegend), Th0− IL-2 (50 U mL^−1). For co-culture experiments T cells were rested in 10% RPMI supplemented with IL-2 (10 U mL^−1) for 36 hrs before co-culture.
Mouse progenitors were isolated from bone marrow (femurs and tibias). […]
Cells were lysed in 1× RIPA Buffer and protein was quantified using Pierce™ BCA Protein Assay Kit. […] Western blot was develop using SuperSignal™ West Pico PLUS Chemiluminescent Substrate (Thermo Fisher) and ECL signal was recorded on X-Ray Films using a developer (Kodak).

WT BMDCs = assay: Stimulation of WT BMDCs with recombinant TNF, intracellular pro-IL-1β by flow cytometry; conditions: recombinant TNFα 20 ng/mL, 6 h
Description: Mouse progenitors were isolated from bone marrow (femurs and tibias). Following RBC lysis, cells were plated at 0.75×10^6 mL^−1 in BMDC media (5% FCS containing complete RPMI+1% rGMCSF (Biolegend, 100 ng mL^−1). Media was replaced on day 2 and day 4 and cells were harvested for experiments on day 5 by gently flushing each well. For sorting of BMDC subpopulations, total BMDC cells were stained with fluorescent antibodies and FACS sorted as shown (FIG. 5g) For retroviral transduction, following RBC lysis cells were plated at 10×10^6 mL^−1 in 2 mL of retroviral supernatant containing […] polybrene. Cells were spinfected at 2500 rpm, 32° C., for 90 minutes, then 3 mL of BMDC media was added to each well and cells were incubated overnight. The next morning, ˜70% of the media was removed from the wells and spinfection was repeated with fresh retroviral supernatant. On day 5 cells were harvested for experiments.
Cells were stained with relevant antibodies for 30 min on ice and washed. For intracellular staining, Foxp3 staining buffer set (eBioscience; 00-5523-00) was used according to manufacturer's protocol. The stained cells were analyzed with BDLSRII or Novocyte (ACEA biosciences). For cytokine receptor staining, control refers to fluorescence minus one control. Data were analyzed with FlowJo 10 Software.

Molecule | production of pro-IL-1β in BMDCs (immunoblot, FIG. 4d) (pro-IL-1β in BMDCs) | mature IL-1β (p17) in the supernatant (immunoblot, FIG. 4d) [1] | synthesis of pro-IL-1β in wild-type BMDCs (FIG. 2k) (WT BMDCs)
IETD | did not affect | loss of mature IL-1β | 
recombinant TNF: rTNFα (Peprotech; 315-01Am, 20 ng/mL) (protein) LRSSSQNSSDKPVAHVVANHQVEEQLEWLSQRANALLANGMDLKDNQLVVPADGLYLVYSQVLFKGQGCPDYVLLTHTVSRFAISYQEKVNLLSAVKSPCPKDTPEGAELKPWYEPIYLGGVFQLEKGDQLSAEVNLPKYLDFAESGQVYFGVIAL |  |  | drove the synthesis
